Experimental findings from patent US20060264418A1, “6-(2,2,2-Trifluoroethylamino-7-chloro-2,3,4,5-tetrahydro-1h-benzo[d] azephine as a 5-ht2c receptor agonist” (priority 2003, published 2006) are described below.

For assay [1], the target named is alpha 2 adrenergic receptor. The assay is described as follows: Radioligand receptor binding assay, alpha 2 adrenergic.
Another assay has as its system male NIH Swiss mice. The assay is described as follows: Marble burying assay (with rotorod). It is filed as in vivo, mouse. The source says: Marble burying in mice has been used to model anxiety disorders including obsessive-compulsive disorders (OCD) due to ethological study of the behavior (e.g. Gyertyan I. “Analysis of the marble burying response: Marbles serve to measure digging rather than evoke burying”, Behavioural Pharmacology 6: 24-31, (1995)) and due to the pharmacological effects of clinical standards (c.f., Njung′E K. Handley S L. “Evaluation of marble-burying behavior as a model of anxiety”, Pharmacology, Biochemistry & Behavior. 38: 63-67, (1991)); Borsini F., Podhorna J., and Marazziti, D. “Do animal models of anxiety predict anxiolytic effects of antidepressants?”, Psychopharmacology 163: 121-141, (2002)). Thus, drugs used in the treatment of generalized anxiety in humans (e.g. benzodiazepines) as well as compounds used to treat OCD (e.g. SSRIs like fluoxetine) decrease burying.
House experimentally-naïve male, NIH Swiss mice (Harlan Sprague-Dawley, Indianapolis, Ind.) weighing between 28-35 g in groups of 12 for at least three days prior to testing in a vivarium with 12 hr. light and dark cycles. Conduct experiments during the light cycle in a dimly lit experimental testing room. Dose mice with vehicle or compound and, after a specified pretreatment interval (generally 30 min.), place each mouse individually on a rotorod (Ugo Basile 7650) operating at a speed of 6 revolutions/min. and observe for falling. After 2 min. on the rotorod, place the mice individually in a 17×28×12 cm high plastic tub with 5 mm sawdust shavings on the floor that are covered with 20 blue marbles (1.5 cm diameter) placed in the center. After 30 min., count the number of marbles buried (⅔ covered with sawdust). Assess the compound's effect on marble burying with Dunnett's test and the effect on rotorod performance by Fisher's exact test.
Clinically effective standard compounds suppress marble burying at doses that are devoid of motor-impairing effects as measured on the rotorod. […]
(In general: In the rotarod test animals must keep their balance on a rotating rod.)

The test system of another assay is Wistar rats. Nature of the assay: Schedule-induced polydipsia. It is filed as in vivo, rat. An excerpt:
Food-deprived rats exposed to intermittent presentations of food will drink amounts of water that are far in excess of their normal daily intake and in excess of their intake when given all of their food at one time (Falk J L. “Production of polydipsia in normal rats by an intermittent food schedule”, Science 133: 195-196, (1961)). This excessive behavior is persistent and has been used to model OCD.
Maintain Wistar rats on a food restricted diet (to maintain 85% free feeding weight), but with free access to water. Train the rats in a behavioral testing chamber to press a lever to receive a food pellet under a fixed interval schedule, such that the rats are rewarded with a 45 mg food pellet the first time they press a lever after a 120 second interval has elapsed. The fixed interval is then reset to 120 seconds and the process repeated. Thus, during a 90 min. test session, the rats can earn a maximum of 45 pellets. The behavioral chamber is also equipped with a water bottle that is weighed before and after the session to determine the amount of water consumed.
Administer test compounds on Tuesdays and Fridays. Determine control day performances on Thursdays. Administer compounds either orally at 60 min. before the beginning of a test session, or subcutaneously at 20 min. before the beginning of a test session. Compare the rates of lever pressing and water consumption for each animal's performance during sessions after test compound treatment with that animal's performance during control sessions, expressed as a percent of the control rate. Average the individual percent of control rates for each dose and calculate the standard error of the mean.
The in vivo efficacy of 5HT2C compounds at the 5HT2C receptor was confirmed by the prevention of effects of the 5HT2C agonists on excessive drinking by co-administration of the 5HT2C receptor antagonist, 6-chloro-5-methyl-N-(2-(2-methylpyridin-3-yl-oxy)pyridin-5-yl)aminocarbonyl)-2,3-dihydroindole.

Some results are limits rather than exact numbers.

`FC(F)(F)CNc1c(Cl)ccc2c1CCNCC2.O=C(O)CCC(=O)O` [Example 2, 7-Chloro-6-(2,2,2-trifluoroethylamino)-2,3,4,5-tetrahydro-1H-benzo[d]azepine Succinic Acid Salt]: the IC50 (usually the concentration that inhibits the measured activity by half) in assay [1] was greater than 3000 nM. Also, in the assay with male NIH Swiss mice, the “reduction of burying behavior with co-administration of the 5-HT2C antagonist” value is “blocked”. Besides, the “marble burying behavior (relative to rotorod performance)” value in the assay on male NIH Swiss mice (30 min. burying session) is listed as “reduce burying behavior”. For the same compound, in the assay with Wistar rats (food restricted rats, 90 min. test session), the “schedule-induced polydipsia (excessive drinking)” value is listed as “suppress schedule-induced polydipsia without producing notable changes in motor patterns, food intake, or behavior the following day”. Also, the “suppression of excessive drinking with co-administration of the 5-HT2C receptor antagonist” value in the assay on Wistar rats (rats) is reported as “blocked”.
